The record followed here is ChEMBL document CHEMBL5576042, “Fungal Depsidones Stimulate AKT-Dependent Glucose Uptake in 3T3-L1 Adipocytes” (J Nat Prod, 2024).

Active and inactive are the calls of the source. The calls are words filed in the database; no cut-off is given here.

Data set [1] has as its system 3T3-L1. Kind of data set: Induction of glucose uptake in mouse 3T3-L1 cells assessed as increase in glucose uptake at 2.3 uM incubated for 16 hrs in presence of 2-[3H]-deoxyglucose by microbeta analysis. The format is functional.
Data set [2] has as its system 3T3-L1. Put plainly: Induction of glucose uptake in insulin-stimulated mouse 3T3-L1 cells assessed as increase in glucose uptake at 11 uM incubated for 16 hrs presence 2-[3H]-deoxyglucose by microbeta analysis. It counts as functional.
For data set [3], the system named is 3T3-L1. Kind of data set: Induction of glucose uptake in mouse 3T3-L1 cells assessed as increase in glucose uptake by measuring fold change at 11 uM incubated for 6 hrs in presence of 0.1 uM wortmannin. It counts as functional.
Data set [4] in a line: Upregulation of AMPK expression in mouse 3T3-L1 cells assessed as fold change at 11 uM measured at 1 hr by Western blot analysis. The format is functional. Background: A western blot detects proteins with antibodies after separation by electrophoresis.
For data set [5], the system named is 3T3-L1. Put plainly: Induction of glucose uptake in mouse 3T3-L1 cells assessed as increase in glucose uptake at 11 uM incubated for 16 hrs in presence of 0.1 uM wortmannin. The format is functional, cell-based.
Data set [6] relates to 3T3-L1. Kind of data set: Induction of glucose uptake in mouse 3T3-L1 cells assessed as increase in glucose uptake at 11 uM incubated for 6 hrs in presence of 0.5 uM wortmannin. The format is functional.
Data set [7] concerns 3T3-L1. Put plainly: Induction of glucose uptake in mouse 3T3-L1 cells assessed as increase in glucose uptake at 11 uM incubated for 16 hrs in presence of wortmannin. It counts as functional, cell-based.
The subject of data set [8] is 3T3-L1. Kind of data set: Induction of AKT phosphorylation at ser473 residue in mouse 3T3-L1 cells assessed as fold change at 11 uM measured at 6 hrs by Western blot analysis. The format is cell-based. Conditions: filed as activator.
Data set [9] deals with 3T3-L1. Put plainly: Induction of glucose uptake in mouse 3T3-L1 cells assessed as increase in glucose uptake at 11.27 uM in presence 2-[3H]-deoxyglucose by microbeta analysis. To be noted: time 3-16 hrs, TDE = time-dependent effect. The format is functional, cell-based.
The nature of data set [10]: Upregulation of AMPK expression in mouse 3T3-L1 cells assessed as fold change at 11 uM measured at 6 hrs by Western blot analysis. It counts as functional.
Data set [11] deals with T1, Solute carrier family 2, facilitated glucose transporter member 1 (Mus musculus) (UniProt P17809).
T1 sequence (whole entry): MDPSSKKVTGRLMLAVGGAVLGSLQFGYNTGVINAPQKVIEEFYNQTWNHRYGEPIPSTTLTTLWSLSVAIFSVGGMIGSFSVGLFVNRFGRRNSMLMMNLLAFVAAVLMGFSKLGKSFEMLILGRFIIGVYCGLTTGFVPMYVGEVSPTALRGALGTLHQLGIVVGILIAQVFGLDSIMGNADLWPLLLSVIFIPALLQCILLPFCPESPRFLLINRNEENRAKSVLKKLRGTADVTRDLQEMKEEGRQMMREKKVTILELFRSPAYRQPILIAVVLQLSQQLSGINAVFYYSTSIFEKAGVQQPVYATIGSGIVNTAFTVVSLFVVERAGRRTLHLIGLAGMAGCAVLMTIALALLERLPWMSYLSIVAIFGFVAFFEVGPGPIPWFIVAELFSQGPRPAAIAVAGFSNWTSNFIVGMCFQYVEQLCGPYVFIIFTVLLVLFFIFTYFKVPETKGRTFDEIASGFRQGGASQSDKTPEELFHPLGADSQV
Put plainly: Induction of GLUT1 translocation in mouse 3T3-L1 cells Cytosol by Western blot analysis. It counts as subcellular.

In data set [12] the test system is 3T3-L1. Put plainly: Effect on GLUT4 mRNA expression in mouse 3T3-L1 cells at 11 uM incubated for 6 hrs by real time qPCR analysis. The format is functional, cell-based. On the technique in general: Real-time PCR tracks product formation cycle by cycle.
Data set [13] deals with 3T3-L1. Put plainly: Cytotoxicity against mouse 3T3-L1 cells assessed as reduction in cell viability at 45 to 68 uM incubated for 18 hrs. Conditions: 3t3-l1, 18 h, dose 45-68 µM. It counts as toxicity, cell-based.
Data set [14] concerns 3T3-L1. Put plainly: Induction of AKT phosphorylation at ser473 residue in mouse 3T3-L1 cells measured up to 6 hrs by Western blot analysis. It counts as cell-based. To be noted: filed as activator.
Data set [15] relates to 3T3-L1. Kind of data set: Induction of glucose uptake in metformin-stimulated mouse 3T3-L1 cells assessed as increase in glucose uptake at 11 uM incubated for 16 hrs presence 2-[3H]-deoxyglucose by microbeta analysis. It counts as functional.
The subject of data set [16] is 3T3-L1. Kind of data set: Induction of AKT phosphorylation at ser473 residue in insulin-resistant mouse 3T3-L1 cells assessed as fold change in presence of insulin. It counts as cell-based. Conditions: filed as activator.
Data set [17] concerns the target T1, Solute carrier family 2, facilitated glucose transporter member 1 (Mus musculus). Put plainly: Induction of GLUT1 translocation in mouse 3T3-L1 cells membrane assessed as fold increase in Na+/K+ ATPase level by Western blot analysis. The format is cell membranes.
For data set [18], the target named is T2, Solute carrier family 2, facilitated glucose transporter member 4 (Mus musculus) (UniProt P14142).
T2 sequence (whole entry): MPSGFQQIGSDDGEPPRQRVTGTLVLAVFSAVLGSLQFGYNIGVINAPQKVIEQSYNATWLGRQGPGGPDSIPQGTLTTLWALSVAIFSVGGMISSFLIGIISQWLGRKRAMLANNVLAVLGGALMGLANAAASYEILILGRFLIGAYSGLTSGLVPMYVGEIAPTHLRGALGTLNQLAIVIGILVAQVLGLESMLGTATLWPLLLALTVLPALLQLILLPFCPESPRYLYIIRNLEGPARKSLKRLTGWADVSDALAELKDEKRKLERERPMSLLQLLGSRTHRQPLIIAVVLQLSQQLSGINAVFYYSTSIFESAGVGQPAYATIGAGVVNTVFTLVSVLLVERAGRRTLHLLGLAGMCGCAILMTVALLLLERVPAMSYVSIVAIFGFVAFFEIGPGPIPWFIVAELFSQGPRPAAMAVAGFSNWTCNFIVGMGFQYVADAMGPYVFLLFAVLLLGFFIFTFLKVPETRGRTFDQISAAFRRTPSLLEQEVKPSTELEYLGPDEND
Put plainly: Induction of GLUT4 translocation in mouse 3T3-L1 cells membrane assessed as fold increase in Na+/K+ ATPase level by Western blot analysis. It counts as cell membranes.

Data set [19] in a line: Effect on GLUT4 protein level in mouse 3T3-L1 cells assessed as fold change at 11 uM incubated for 16 hrs. The format is functional.
Data set [20] has as its system 3T3-L1. Kind of data set: Induction of glucose uptake in mouse 3T3-L1 cells assessed as increase in glucose uptake by measuring fold change at 11 uM incubated for 6 hrs in presence of 0.5 uM wortmannin. It counts as functional.
Data set [21] addresses T2, Solute carrier family 2, facilitated glucose transporter member 4 (Mus musculus). Kind of data set: Induction of GLUT4 translocation in mouse 3T3-L1 cells membrane by Western blot analysis. The format is cell membranes.
Data set [22] relates to 3T3-L1. Put plainly: Induction of glucose uptake in insulin resistant-mouse 3T3-L1 cells assessed as fold increase in glucose uptake at 11 uM incubated for 16 hrs in presence of 2-[3H]-deoxyglucose and insulin. The format is functional.
Data set [23] concerns the target T2, Solute carrier family 2, facilitated glucose transporter member 4 (Mus musculus). Put plainly: Induction of GLUT4 translocation in mouse 3T3-L1 cells Cytosol by Western blot analysis. The format is subcellular.
The test system of data set [24] is 3T3-L1. Put plainly: Induction of glucose uptake in mouse 3T3-L1 cells assessed as increase in glucose uptake at 11 uM incubated for 16 hrs in presence of 0.1 uM dorsomorphin. It counts as functional, cell-based.
The subject of data set [25] is 3T3-L1. Kind of data set: Induction of AKT phosphorylation at ser473 residue in insulin-resistant mouse 3T3-L1 cells in presence of insulin. It counts as cell-based. To be noted: filed as activator.
The test system of data set [26] is 3T3-L1. Kind of data set: Induction of AKT phosphorylation at ser473 residue in mouse 3T3-L1 cells assessed as fold change at 11 uM measured at 1 hr by Western blot analysis. It counts as cell-based. To be noted: filed as activator.
The subject of data set [27] is 3T3-L1. Kind of data set: Induction of glucose uptake in mouse 3T3-L1 cells assessed as increase in glucose uptake by measuring fold change at 11 uM incubated for 6 hrs in presence of 0.25 uM wortmannin. It counts as functional.
The test system of data set [28] is 3T3-L1. Put plainly: Induction of glucose uptake in insulin-stimulated mouse 3T3-L1 cells assessed as increase in glucose uptake at 100 nM incubated for 16 hrs presence 2-[3H]-deoxyglucose by microbeta analysis. It counts as functional, cell-based.
The subject of data set [29] is 3T3-L1. Put plainly: Induction of glucose uptake in mouse 3T3-L1 cells assessed as increase in glucose uptake incubated for 16 hrs in presence 2-[3H]-deoxyglucose by microbeta analysis. The format is functional, cell-based. To be noted: dose 2.8-11 µM.
The nature of data set [30]: Effect on NONO mRNA expression in mouse 3T3-L1 cells assessed as fold change at 11 uM incubated for 6 hrs by real time qPCR analysis. The format is functional.
The test system of data set [31] is 3T3-L1. Put plainly: Induction of glucose uptake in insulin resistant-mouse 3T3-L1 cells assessed as fold increase in glucose uptake at 11 uM incubated for 16 hrs in presence of 2-[3H]-deoxyglucose. It counts as functional.
A short description of data set [32]: Effect on ACTbeta mRNA expression in mouse 3T3-L1 cells assessed as fold change at 11 uM incubated for 6 hrs by real time qPCR analysis. It counts as functional.
Data set [33] concerns 3T3-L1. Put plainly: Induction of glucose uptake in mouse 3T3-L1 cells assessed as increase in glucose uptake at 3.1 uM incubated for 16 hrs in presence of 2-[3H]-deoxyglucose by microbeta analysis. The format is functional.

As to `C/C=C(\C)c1c(Cl)c(O)c(C)c2c1Oc1c(Cl)c(O)c(Cl)c(C)c1C(=O)O2`, the Activity in [1] is on record as 121%.

Take `C/C=C(\C)c1c(Cl)c(OC)c(C)c2c1Oc1c(Cl)c(O)c(Cl)c(C)c1C(=O)O2`: the Activity was 276% in data set [2]; 20% in data set [6]; “Tde” in data set [9]; “Non-Toxic” in [13]; 252% in data set [15]; 141% in data set [1]. Moreover, in data set [29], the Activity result is “Dose-Dependent Effect”. Besides, the “fold change (FC)” value was determined as 1.5 in data set [3]; 3.7 in data set [4]; 19 in [8]; 3.8 in data set [10]; 2.1 in data set [16]; 1.6 in [17]. Also, the fold change (FC) in data set [18] turned out to be 1.7; in data set [19], 1.67; in data set [20] it was 1.2; in data set [22], 2.7; in data set [26], 2.4; in [27], 1.4. Besides, the “fold change (FC)” value in data set [30] is 2.07; in [31], 2.4; in data set [32], 1.92. The result in data set [5], in data set [7] and in data set [24] was inactive. In addition, the outcome in data set [11], in [12], in data set [14], in [21], in data set [23] and in data set [25] was Active. Further, the result in [28] was Active.

Turning to `C/C=C(\C)c1cc(O)c(C)c2c1Oc1cc(O)cc(C)c1C(=O)O2`, the Activity in data set [33] worked out at 124%.
